This is an account of results in PubChem BioAssay AID248 (DTP/NCI, 2004).

The subject of this assay is L1210 leukemia ip in BDF1 mice, survival T/C. Description: NCI In Vivo Anticancer Drug Screen. Data for tumor model L1210 Leukemia (intraperitoneal) in B6D2F1 (BDF1) mice. Particulars: endpoint: mean survival time, higher = longer survival. Put shortly: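 Survival endpoint. Drug-treated group vs vehicle group, expressed as T divided by C. Tumor passaged by transplantation.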

Where [1] appears, read: dose: 12.5 mg/kg/injection, schedule: Q01DX009 (ip), vehicle: saline with Tween-80.
[2] abbreviates: dose: 25.0 mg/kg/injection, schedule: Q01DX009 (ip), vehicle: saline with Tween-80.
The mark [3] stands for this setting: dose: 100.0 mg/kg/injection, schedule: Q01DX001 (ip), vehicle: other.
Setting [4] is: dose: 75.0 mg/kg/injection, schedule: Q01DX001 (ip), vehicle: saline.
The mark [5] stands for this setting: dose: 75.0 mg/kg/injection, schedule: Q04DX003 (ip), vehicle: saline.
Where [6] appears, read: dose: 150.0 mg/kg/injection, schedule: Q01DX001 (ip), vehicle: saline.
Where [7] appears, read: dose: 150.0 mg/kg/injection, schedule: Q04DX003 (ip), vehicle: saline.
The mark [8] stands for this setting: dose: 300.0 mg/kg/injection, schedule: Q01DX001 (ip), vehicle: saline.
Where [9] appears, read: dose: 300.0 mg/kg/injection, schedule: Q04DX003 (ip), vehicle: saline.

Where “and” joins values, the source holds several entries; their conditions need not be identical. Equal values may be shown once. Inconclusive results and toxic doses are left out.

As for `COc1ccc2nc(N)sc2c1`, the T/C is, setting by setting: under setting [1], 96 % of control; under setting [2], 89 % of control; (dose: 50.0 mg/kg/injection, schedule: Q01DX009 (ip), vehicle: saline with Tween-80) 97 % of control and 91 % of control; (dose: 50.0 mg/kg/injection, schedule: Q04DX003 (ip), vehicle: saline with Tween-80) 107 % of control; (dose: 100.0 mg/kg/injection, schedule: Q04DX003 (ip), vehicle: saline with Tween-80) 112 % of control; (dose: 200.0 mg/kg/injection, schedule: Q04DX003 (ip), vehicle: saline with Tween-80) 93 % of control.

In the case of `CC(=O)NC1=C(Nc2ccc(-c3ccc(NC4=C(NC(C)=O)C(=O)c5ccccc5C4=O)cc3)cc2)C(=O)c2ccccc2C1=O`, the T/C runs as follows: (dose: 3.12 mg/kg/injection, schedule: Q04DX003 (ip), vehicle: saline) 96 % of control; (dose: 4.5 mg/kg/injection, schedule: Q01DX009 (ip), vehicle: saline) 101 % of control; (dose: 6.25 mg/kg/injection, schedule: Q04DX003 (ip), vehicle: saline) 98 % of control; (dose: 9.0 mg/kg/injection, schedule: Q01DX009 (ip), vehicle: saline) 101 % of control; (dose: 12.5 mg/kg/injection, schedule: Q01DX001 (ip), vehicle: saline) 95 % of control; (dose: 12.5 mg/kg/injection, schedule: Q04DX003 (ip), vehicle: saline) 98 % of control. Moreover, the T/C (dose: 18.0 mg/kg/injection, schedule: Q04DX003 (ip), vehicle: saline) was 87 % of control.

For `COC(=O)C(=O)CC(=O)c1cccc(C)c1`, the T/C reads like this: (dose: 100.0 mg/kg/injection, schedule: Q04DX002 (ip), vehicle: Klucel (hydroxypropylcellulose) (HPC)) 100 % of control; (dose: 200.0 mg/kg/injection, schedule: Q04DX002 (ip), vehicle: Klucel (hydroxypropylcellulose) (HPC)) 103 % of control; (dose: 400.0 mg/kg/injection, schedule: Q04DX002 (ip), vehicle: Klucel (hydroxypropylcellulose) (HPC)) 92 % of control.

As to `CC(=O)C1=CC[C@H]2[C@@H]3CCC4=CC(=O)CC[C@]4(C)[C@H]3C(=O)C[C@]12C`, the T/C runs as follows: (dose: 50.0 mg/kg/injection, schedule: Q01DX Z (sc), vehicle: steriod suspending solution) 102 % of control; (dose: 250.0 mg/kg/injection, schedule: Q01DX Z (sc), vehicle: steriod suspending solution) 101 % of control; (dose: 500.0 mg/kg/injection, schedule: Q01DX Z (sc), vehicle: steriod suspending solution) 102 % of control.

Regarding `NC(=O)NC(=O)NC1CCCCC1`, the T/C runs as follows: (dose: 100.0 mg/kg/injection, schedule: Q04DX003 (ip), vehicle: Klucel (hydroxypropylcellulose) (HPC)) 102 % of control; (dose: 200.0 mg/kg/injection, schedule: Q04DX003 (ip), vehicle: Klucel (hydroxypropylcellulose) (HPC)) 102 % of control; (dose: 400.0 mg/kg/injection, schedule: Q04DX003 (ip), vehicle: Klucel (hydroxypropylcellulose) (HPC)) 100 % of control.

Turning to `CC(Oc1nc2c(c(=O)n(C)c(=O)n2C)n1C)C1CCCC1` (stereo not drawn), the T/C reads like this: (dose: 50.0 mg/kg/injection, schedule: Q01DX001 (ip), vehicle: other) 103 % of control; under setting [3], 100 % of control.

`O=C1C[C@H]2[C@H](CO)[C@@H](OC(=O)c3ccc(-c4ccccc4)cc3)C[C@H]2O1`: the T/C runs as follows: (dose: 12.5 mg/kg/injection, schedule: Q01DX009 (ip), vehicle: alcohol) 103 % of control; (dose: 25.0 mg/kg/injection, schedule: Q01DX009 (ip), vehicle: alcohol) 101 % of control; (dose: 50.0 mg/kg/injection, schedule: Q01DX009 (ip), vehicle: alcohol) 98 % of control.

In the case of `CCN(CC)C(=O)N1CCN(c2ccc(Cl)cc2)CC1`, the T/C is 106 % of control under setting [4]; 103 % of control under setting [5]; 94 % of control under setting [6]; 100 % of control under setting [7]; 108 % of control under setting [8]; 91 % of control under setting [9].

With `CC1(C)CCC2(C(=O)O)CCC3=C(C(CCl)CC4C3(C)CCC3C4(C)CC(O)C(O)C3(C)C(=O)O)C2C1` (stereo not drawn), the T/C is 96 % of control (dose: 25.0 mg/kg/injection, schedule: Q01DX Z (ip), vehicle: carboxymethylcellulose (CMC)); 91 % of control (dose: 50.0 mg/kg/injection, schedule: Q01DX Z (ip), vehicle: carboxymethylcellulose (CMC)); 97 % of control (dose: 75.0 mg/kg/injection, schedule: Q01DX Z (ip), vehicle: carboxymethylcellulose (CMC)); 94 % of control (dose: 125.0 mg/kg/injection, schedule: Q01DX Z (ip), vehicle: carboxymethylcellulose (CMC)).

As to `CN(C(=O)OCc1ccccc1)C(Cc1ccccc1)C(=O)O` (stereo not drawn), the T/C is, setting by setting: under setting [3], 95 % of control; (dose: 200.0 mg/kg/injection, schedule: Q01DX001 (ip), vehicle: other) 96 % of control.

With `Cc1nnc(NS(=O)(=O)c2ccc(N=Nc3c(N)[nH]c(=O)[nH]c3=O)cc2)s1`, the T/C (dose: 100.0 mg/kg/injection, schedule: Q01DX001 (ip), vehicle: saline) was 96 % of control; the T/C (dose: 200.0 mg/kg/injection, schedule: Q01DX001 (ip), vehicle: saline) was 111 % of control; the T/C (dose: 400.0 mg/kg/injection, schedule: Q01DX001 (ip), vehicle: saline) was 98 % of control.

Turning to `O=[N+]([O-])c1cc([N+](=O)[O-])c(Cl)s1`, the T/C reads like this: under setting [1], 97 % of control; under setting [2], 91 % of control.

For `O=C(OC(c1ccccc1)(C(F)(F)F)C(F)(F)F)c1ccccc1Sc1ccccc1`, the T/C runs as follows: (dose: 100.0 mg/kg/injection, schedule: Q01DX009 (ip), vehicle: saline with Tween-80) 95 % of control; (dose: 200.0 mg/kg/injection, schedule: Q01DX009 (ip), vehicle: saline with Tween-80) 101 % of control; (dose: 400.0 mg/kg/injection, schedule: Q01DX009 (ip), vehicle: saline with Tween-80) 98 % of control.

As for `CCCCS(=O)(=O)Nc1ccc(Nc2c3ccccc3nc3ccccc23)c(OC)c1`, the T/C runs as follows: (dose: 12.5 mg/kg/injection, schedule: Q01DX009 (ip), vehicle: saline) 150 % of control; (dose: 25.0 mg/kg/injection, schedule: Q01DX009 (ip), vehicle: saline) 153 % of control; (dose: 50.0 mg/kg/injection, schedule: Q01DX009 (ip), vehicle: Klucel (hydroxypropylcellulose) (HPC)) 154 % of control.

As to `Cc1ccc([I+]c2ccc(C)cc2)cc1`, the T/C (dose: 8.0 mg/kg/injection, schedule: Q04DX002 (ip), vehicle: saline) is 101 % of control; the T/C (dose: 16.0 mg/kg/injection, schedule: Q04DX002 (ip), vehicle: saline) was 92 % of control; the T/C (dose: 32.0 mg/kg/injection, schedule: Q04DX002 (ip), vehicle: saline) is 92 % of control.

For the compound `COC(=O)c1ccccc1NC(=O)Nc1cccc(Cl)c1C`, the T/C is 86 % of control (dose: 100.0 mg/kg/injection, schedule: Q01DX009 (ip), vehicle: Klucel (hydroxypropylcellulose) (HPC)) and 95 % of control (dose: 200.0 mg/kg/injection, schedule: Q01DX009 (ip), vehicle: Klucel (hydroxypropylcellulose) (HPC)).

Consider `CC(=O)Oc1ccc[nH]c1=O`, for which the T/C is, setting by setting: under setting [4], 103 % of control; under setting [5], 103 % of control; (dose: 100.0 mg/kg/injection, schedule: Q01DX001 (ip), vehicle: carboxymethylcellulose (CMC)) 100 % of control; (dose: 100.0 mg/kg/injection, schedule: Q01DX009 (ip), vehicle: carboxymethylcellulose (CMC)) 98 % of control; (dose: 100.0 mg/kg/injection, schedule: Q01DX009 (ip), vehicle: saline) 101 % of control; (dose: 100.0 mg/kg/injection, schedule: Q01DX015 (ip), vehicle: saline) 102 % of control. Further, the T/C under setting [6] was 102 % of control; the T/C under setting [7] was 100 % of control; the T/C (dose: 200.0 mg/kg/injection, schedule: Q01DX001 (ip), vehicle: carboxymethylcellulose (CMC)) is 97 % of control; the T/C (dose: 200.0 mg/kg/injection, schedule: Q01DX009 (ip), vehicle: carboxymethylcellulose (CMC)) is 109 % of control; the T/C (dose: 200.0 mg/kg/injection, schedule: Q01DX009 (ip), vehicle: saline) was 114 % of control; the T/C (dose: 200.0 mg/kg/injection, schedule: Q01DX015 (ip), vehicle: saline) is 124 % of control. The T/C is, setting by setting: under setting [8], 110 % of control; under setting [9], 113 % of control; (dose: 400.0 mg/kg/injection, schedule: Q01DX001 (ip), vehicle: carboxymethylcellulose (CMC)) 103 % of control; (dose: 400.0 mg/kg/injection, schedule: Q01DX009 (ip), vehicle: saline) 153 % of control; (dose: 800.0 mg/kg/injection, schedule: Q01DX009 (ip), vehicle: carboxymethylcellulose (CMC)) 154 % of control; (dose: 800.0 mg/kg/injection, schedule: Q01DX009 (ip), vehicle: saline) 88 % of control.
